According to US20120052544A1, “E[…] CELLS WITH PSORALENS” (priority 2010, published 2012):
Values joined by “and” are separate entries in the source; they are usually repeats but may differ in a detail not shown here. Equal entries are not always repeated.

Columns and labels:
Xenopus eggs = assay: Enucleation of Xenopus eggs with psoralen and long-wave UV light, then fertilization; type: cell-based; conditions: for Chromosome Number (Mean ± SD): embryos from eggs treated with psoralen + long-wave UV before fertilization, diploid control 36
HeLa cells = assay: Effect of psoralen+UV treatment on growth of HeLa cells
Mouse sperm = conditions: AMT+UV-treated sperm
Description: (§1) Sperm Enucleation. A small piece of fresh Xenopus testis was macerated with forceps, resuspended in 1×MMR containing 1-50 μM AMT, then filtered through a […] cell strainer (Falcon). The sperm suspension was spread onto a Petri dish then irradiated as described above and used immediately to fertilize fresh eggs. Mouse epididymal sperm were isolated in HTF medium (Quinn, 2000) and not filtered before irradiation.
(§2) Eggs from super-ovulated mice were irradiated for 30 seconds with a handheld 4W UV lamp in the presence of 4-6 μM AMT, then parthenogenetically activated with strontium chloride and cultured in vitro for four days. […] In mouse embryos, however, checkpoints are active during the early cleavage divisions (Liu et al., 2000b; Takai et al., 2000).

Xenopus sperm = test system: Xenopus sperm
Description: as §1
Karyotype Analysis. Karyotype analysis was performed using a modified protocol (http:// followed “by faculty.virginia.edu/xtropicalis/KaryotypeXtropicalis.htm”). […] tailbud embryos were incubated in 0.1×MMR containing 10 μM nocodazole for 1-3 hours. The tailbud was bluntly dissected off with sharp needles, incubated in 60% acetic acid for 5 minutes, and squashed onto a Superfrost Plus microscope slide (V WR Scientific) under a coverslip and a lead brick. After 5 minutes, the slide was quick-frozen on a cake of dry ice, the coverslip was prized off with a razor blade, and the squashed tissue was stained with 0.1 μg/ml 4′,6-diamidino-2-phenylindole (DAPI). At least three high quality spreads were counted before assigning a karyotype.

Mouse eggs = conditions: cultured four days
Description: as §2

primary MEFs = test system: primary MEFs
Description: (§3) Feeder Cell Enucleation. […] Cells were irradiated from above for 30-60 seconds with a 4 W UVGL-25 Mineralite (UVP) using the long-wave setting, holding the lamp as close as possible to the brim of the culture dish with the lid removed. After irradiation cells were washed with PBS. H7/WA07 hESCs (National Stem Cell Bank) were plated on primary MEFs 24 hours later. These MEFs were between passages 2 and 5. For keratinocytes precursor cell culture, the MEFS were trypsinized immediately after treatment and plated with CIN612 cells.
Human embryonic stem cells (hESCs) require a feeder layer of mouse embryonic fibroblasts (MEFs) to grow in culture (Thomson et al., 1998). […] The ability of MEFs to support hESC growth declines with time (VIIIa-Diaz et al., 2009).

Mouse J2 3T3 fibroblasts = conditions: 5 μM AMT and UV light 2 minutes
Description: as §3
The human keratinocyte precursor cell line CIN612 is widely used in studies of human papillomavirus (HPV) (Ozbun, 2002). CIN612 cells harbor episomal copies of HPV31b, a subtype that causes cervical cancer. The cells are typically grown on a feeder layer of mouse fibroblasts. Mouse J2 3T3 fibroblasts were treated with 5 μM AMT and UV light for 2 minutes, then trypsinized and plated with CIN612 cells.

[1] = 5 μM MOP, long wave UV 1 minute, cultured three days
[2] = pigmented male sperm treated with AMT and UV, eggs from albino female

**Q.** With `COc1c2occc2cc2ccc(=O)oc12` [MOP, 8-methoxypsoralen] as the compound, how does the “Chromosome Number (Mean ± SD)” value (Xenopus eggs; karyotype analysis) read?
**A.** 18.0 ± 0.0

**Q.** What about the Cell viability (HeLa cells; [1]) of the same compound?
**A.** 80-100%

**Q.** What about the HeLa cell growth (HeLa cells; [1]) of the same compound?
**A.** effectively arrested HeLa cell growth

**Q.** What about the “Chk1 phosphorylation, MOP without UV exposure” value (HeLa cells; MOP without UV) of the same compound?
**A.** little or no Chk1 phosphorylation

**Q.** And the “Growth of cells incubated in MOP without UV exposure” value (HeLa cells; MOP without UV)?
**A.** grew normally

**Q.** And the “S345-phosphorylated Chk1” value (HeLa cells; MOP+UV-arrested cells, immunoblotting)?
**A.** high levels

**Q.** And the “Cell cycle distribution (flow cytometry)” value (HeLa cells; MOP+UV-treated cells)?
**A.** arrested in S and G2/M phases of the cell cycle

**Q.** What about the Proliferation in culture (HeLa cells; MOP+UV-treated, untreated doubling time close to 24 hours) of the same compound?
**A.** did not proliferate

**Q.** Which results are given for `Cc1oc2c(C)c3oc(=O)cc(C)c3cc2c1CN` [AMT, 4′-aminomethyl-4, 5′, 8-trimethylpsoralen]?
**A.** Average efficiency of enucleation (Xenopus eggs; 20 different clutches of eggs from different mothers): 87±11%; Embryo development, AMT-only treated eggs (Xenopus eggs; AMT without UV): normal diploid embryos; DNA content of somatic cells versus cells from untreated eggs (Xenopus eggs; AMT+UV-treated eggs, primary cultures from pools of 20 tadpoles, flow cytometry): exactly half; Rates of fertilization and development into haploid tadpoles (Xenopus eggs; after psoralen+UV treatment of eggs): 80-100%; Appearance of tadpoles (Xenopus eggs; eggs in 50 μM AMT 5 min, irradiated 5 min, 100 W UV 300-400 nm, then fertilized): typical haploid appearance; Outcome with shorter irradiation or lower concentrations (Xenopus eggs; eggs irradiated for shorter periods or with lower concentrations of AMT): abnormal embryos; Haploid embryos expressing GFP (Xenopus eggs; eggs of CMV-GFP(+) female treated with AMT and UV, fertilized with GFP(−) sperm, untreated 63%): virtually none; Chromosome Number (Mean ± SD) (Xenopus eggs; karyotype analysis): 18 and 18.0 ± 0.0; Concentration providing ideal enucleation conditions (Xenopus eggs; irradiation of eggs for 2-5 minutes): 25 to 50 µM; Chromosome number of most surviving abnormal embryos (Xenopus eggs; shorter irradiation or lower AMT concentrations, karyotype analysis): 32-34; Cleavage of fertilized zygotes (Mouse sperm; 20-40% with untreated sperm reached blastocyst): rarely cleaved even once; Fertilization of mouse eggs in vitro by treated sperm (Mouse sperm; two pronuclei): successfully fertilized mouse eggs in vitro; Embryo outcome when both sperm and egg were treated (Xenopus sperm; both sperm and egg AMT+UV-treated): underwent several irregular cleavage divisions before dying during the blastula stage; Chromosome Number (Mean ± SD) (Xenopus sperm; embryos from eggs fertilized with AMT + UV-treated sperm, karyotype analysis): 18 and 18.0 ± 0.0; Appearance of tadpoles (Xenopus sperm; [2]): typical haploid appearance; Pigmentation of tadpoles (Xenopus sperm; [2]): all were albino; Effect on efficiency of fertilization (Xenopus sperm; sperm treated with AMT and UV light): no effect; Efficiency of enucleation (Xenopus sperm; sperm, AMT + UV): 95±3%; Psoralen concentration sufficient to completely destroy the nucleus (Xenopus sperm; sperm, with UV irradiation): 1 µM; Embryo outcome, AMT without UV exposure (Xenopus sperm; unless fertilization performed in a darkroom under a safelight): sometimes gave rise to abnormal embryos; Development of parthenogenetically activated eggs (Mouse eggs; 4-6 μM AMT, 30 seconds handheld 4W UV lamp): arrested development at the 1-2 cell stage; Development of eggs treated with AMT only (Mouse eggs; AMT without UV): formed complete blastocysts; Comparison of colonies with those on gamma-irradiated MEFs (primary MEFs; 5 μM AMT, long-wave UV 30 seconds): indistinguishable from those grown on gamma-irradiated MEFs; Appearance of hESC colonies on treated MEFs (primary MEFs; 5 μM AMT, long-wave UV 30 seconds, H7/WA07 hESCs after 5 days): healthy-appearing hESC colonies with smooth rounded borders; Time after treatment within which plating maintains hESCs undifferentiated (primary MEFs; AMT+UV-treated MEFs, noticeable decrease after 8 days): ≤ 6 days; Oct3/4 expression of hESCs (primary MEFs; on AMT+UV-treated MEFs): normal amounts; Growth rate of CIN612 cells on psoralen-treated feeders (Mouse J2 3T3 fibroblasts): the same as on mitomycin-C treated feeders; CIN612 colonies compared with mitomycin C-treated feeders (Mouse J2 3T3 fibroblasts; 3-7 days in culture): indistinguishable from those grown on mitomycin C-treated feeder cells
